From the NIST ThermoML archive (doi:10.1021/je060490w)

Legend:
[1] = for surface tension liquid-gas: Pendant drop shape; for mass density: 101.33 kPa, Liquid
[2] = xn = mol fraction of the nth substance listed; conditions: Pendant drop shape

Cc1cc(C)cc(C)c1 [1,3,5-trimethylbenzene]
[1]
Conditions	mass density [kg/m3]	surface tension liquid-gas [mN/m]
298.15 K	861.12	28.05
308.15 K	852.94	27.21
313.15 K	848.82	26.78

Cc1cc(C)cc(C)c1 [1,3,5-trimethylbenzene] + CCOC(C)OCC
[2], x2 = 0
Conditions	surface tension liquid-gas [mN/m]
298.15 K	28.05
308.15 K	27.21
313.15 K	26.78

COC(C)(C)OC [3,3-dimethyl-2,4-dioxapentane] + Cc1ccc(C)c(C)c1
[2]
Conditions	surface tension liquid-gas [mN/m]
298.15 K, x1 = 0.0523	28.69
298.15 K, x1 = 0.0998	28.17
298.15 K, x1 = 0.1497	27.62
298.15 K, x1 = 0.1996	27.12
298.15 K, x1 = 0.2517	26.6
298.15 K, x1 = 0.3009	26.13
298.15 K, x1 = 0.3494	25.68
298.15 K, x1 = 0.3987	25.24
298.15 K, x1 = 0.4502	24.79
298.15 K, x1 = 0.4994	24.37
298.15 K, x1 = 0.5498	23.95
298.15 K, x1 = 0.5996	23.55
298.15 K, x1 = 0.6508	23.17
298.15 K, x1 = 0.6997	22.82
298.15 K, x1 = 0.7498	22.51
298.15 K, x1 = 0.7992	22.24
298.15 K, x1 = 0.8508	22
298.15 K, x1 = 0.8997	21.79
298.15 K, x1 = 0.9489	21.62
298.15 K, x1 = 1	21.46
308.15 K, x1 = 0.0515	27.59
308.15 K, x1 = 0.0998	27.02
308.15 K, x1 = 0.1499	26.47
308.15 K, x1 = 0.2001	25.95
308.15 K, x1 = 0.2475	25.5
308.15 K, x1 = 0.302	24.97
308.15 K, x1 = 0.3512	24.53
308.15 K, x1 = 0.3995	24.12
308.15 K, x1 = 0.4485	23.66
308.15 K, x1 = 0.4989	23.23
308.15 K, x1 = 0.5542	22.77
308.15 K, x1 = 0.5998	22.4
308.15 K, x1 = 0.6518	22.02
308.15 K, x1 = 0.6987	21.69
308.15 K, x1 = 0.7455	21.44
308.15 K, x1 = 0.7962	21.11
308.15 K, x1 = 0.851	20.86
308.15 K, x1 = 0.8973	20.71
308.15 K, x1 = 0.9456	20.55
308.15 K, x1 = 1	20.43
313.15 K, x1 = 0.0506	27.03
313.15 K, x1 = 0.0996	26.42
313.15 K, x1 = 0.1509	25.86
313.15 K, x1 = 0.1994	25.36
313.15 K, x1 = 0.2511	24.87
313.15 K, x1 = 0.3032	24.38
313.15 K, x1 = 0.3475	23.95
313.15 K, x1 = 0.3981	23.52
313.15 K, x1 = 0.4501	23.07
313.15 K, x1 = 0.5	22.66
313.15 K, x1 = 0.5487	22.25
313.15 K, x1 = 0.5993	21.84
313.15 K, x1 = 0.6504	21.45
313.15 K, x1 = 0.6993	21.12
313.15 K, x1 = 0.7486	20.8
313.15 K, x1 = 0.7987	20.51
313.15 K, x1 = 0.8417	20.31
313.15 K, x1 = 0.8929	20.12
313.15 K, x1 = 0.9487	19.97
313.15 K, x1 = 1	19.91

CCOC(C)OCC [1,1-diethoxyethane]
[1]
Conditions	mass density [kg/m3]	surface tension liquid-gas [mN/m]
298.15 K	821.96	20.88
308.15 K	811.48	19.89
313.15 K	806.18	19.42

Cc1ccc(C)c(C)c1 [1,2,4-trimethylbenzene] + COC(C)(C)OC
[2], x2 = 0
Conditions	surface tension liquid-gas [mN/m]
298.15 K	29.3
308.15 K	28.24
313.15 K	27.71

CCOC(C)OCC [1,1-diethoxyethane] + Cc1ccc(C)c(C)c1
[2]
Conditions	surface tension liquid-gas [mN/m]
298.15 K, x1 = 0.05	28.51
298.15 K, x1 = 0.1	27.76
298.15 K, x1 = 0.151	26.97
298.15 K, x1 = 0.2005	26.29
298.15 K, x1 = 0.2511	25.71
298.15 K, x1 = 0.3005	25.14
298.15 K, x1 = 0.3526	24.6
298.15 K, x1 = 0.401	24.16
298.15 K, x1 = 0.4538	23.73
298.15 K, x1 = 0.5034	23.35
298.15 K, x1 = 0.5513	23.01
298.15 K, x1 = 0.5998	22.7
298.15 K, x1 = 0.6519	22.41
298.15 K, x1 = 0.7012	22.08
298.15 K, x1 = 0.7499	21.85
298.15 K, x1 = 0.8003	21.58
298.15 K, x1 = 0.8491	21.42
298.15 K, x1 = 0.9	21.21
298.15 K, x1 = 0.9399	21.09
298.15 K, x1 = 1	20.88
308.15 K, x1 = 0.0488	27.35
308.15 K, x1 = 0.0993	26.53
308.15 K, x1 = 0.1486	25.79
308.15 K, x1 = 0.2003	25.09
308.15 K, x1 = 0.2497	24.51
308.15 K, x1 = 0.3001	23.95
308.15 K, x1 = 0.3499	23.47
308.15 K, x1 = 0.4004	23.02
308.15 K, x1 = 0.4534	22.6
308.15 K, x1 = 0.5016	22.23
308.15 K, x1 = 0.55	21.9
308.15 K, x1 = 0.6017	21.54
308.15 K, x1 = 0.6514	21.24
308.15 K, x1 = 0.7003	20.96
308.15 K, x1 = 0.7498	20.72
308.15 K, x1 = 0.8007	20.46
308.15 K, x1 = 0.8502	20.28
308.15 K, x1 = 0.8989	20.09
308.15 K, x1 = 0.9488	19.95
308.15 K, x1 = 1	19.89
313.15 K, x1 = 0.0498	26.73
313.15 K, x1 = 0.0992	25.91
313.15 K, x1 = 0.1501	25.09
313.15 K, x1 = 0.2003	24.46
313.15 K, x1 = 0.2496	23.86
313.15 K, x1 = 0.3027	23.34
313.15 K, x1 = 0.3505	22.89
313.15 K, x1 = 0.4	22.43
313.15 K, x1 = 0.4501	22.05
313.15 K, x1 = 0.499	21.67
313.15 K, x1 = 0.5463	21.37
313.15 K, x1 = 0.6011	20.95
313.15 K, x1 = 0.6503	20.68
313.15 K, x1 = 0.7002	20.4
313.15 K, x1 = 0.7491	20.14
313.15 K, x1 = 0.7998	19.91
313.15 K, x1 = 0.8507	19.72
313.15 K, x1 = 0.899	19.53
313.15 K, x1 = 0.9497	19.45
313.15 K, x1 = 1	19.42
